Results taken from paper PMC9628870 (Journal of Microbiology and Biotechnology, 2022).

Target: T1, Burkholderia pseudomallei L-asparaginase (Burkholderia pseudomallei, UniProt Q63UZ6)
T1 construct: gene ansB
Conditions: 10 mM substrate, 50 mM Tris-HCl pH 8.6, 37 °C, 10 min

T1 sequence (Q63UZ6 1-347 limits assumed): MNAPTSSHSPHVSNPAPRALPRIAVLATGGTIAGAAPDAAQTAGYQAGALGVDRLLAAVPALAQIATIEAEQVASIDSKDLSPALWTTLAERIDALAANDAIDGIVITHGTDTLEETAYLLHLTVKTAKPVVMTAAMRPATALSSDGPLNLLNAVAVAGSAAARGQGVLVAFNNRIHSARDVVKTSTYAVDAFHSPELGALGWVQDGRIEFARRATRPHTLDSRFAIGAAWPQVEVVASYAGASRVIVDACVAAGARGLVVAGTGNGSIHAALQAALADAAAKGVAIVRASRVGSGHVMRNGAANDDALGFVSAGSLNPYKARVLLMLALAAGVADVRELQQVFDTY

NC(=O)C[C@H](N)C(=O)O [L-asparagine] was tested, and the “ammonia release by Nessler's reagent” value was “the purified recombinant enzyme displayed the maximum activity and specificity towards the reaction substrate L-asparagine”.
